# ChEMBL document CHEMBL3792365, “Dioxol and dihydrodioxin analogs of 2- and 3-phenylacetonitriles as potent anti-cancer agents with nanomolar activity against a variety of human cancer cells” (2016)
# What was measured:
# Type in all cases: functional
# [1] = Growth inhibition of human UACC62 cells at 10 uM after 48 hrs by sulforhodamine B assay; details: UACC-62, 48 h, values are per cent of control
# [2] = test system: SN12C; assay: Growth inhibition of human SN12C cells at 10 uM after 48 hrs by sulforhodamine B assay; details: values are per cent of control
# [3] = Growth inhibition of human OVCAR4 cells at 10 uM after 48 hrs by sulforhodamine B assay; details: OVCAR-4, 48 h, values are per cent of control
# [4] = test system: NCI-H23; assay: Growth inhibition of human NCI-H23 cells at 10 uM after 48 hrs by sulforhodamine B assay; details: NCI-H23, 48 h, values are per cent of control
# [5] = Growth inhibition of human SW620 cells at 10 uM after 48 hrs by sulforhodamine B assay; details: SW-620, 48 h, values are per cent of control
# [6] = Growth inhibition of human SKOV3 cells at 10 uM after 48 hrs by sulforhodamine B assay; details: SK-OV-3, 48 h, values are per cent of control
# [7] = test system: 786-0; assay: Growth inhibition of human 786-0 cells at 10 uM after 48 hrs by sulforhodamine B assay; details: 786-0, 48 h, values are per cent of control
# [8] = Growth inhibition of human SF295 cells at 10 uM after 48 hrs by sulforhodamine B assay; details: SF-295, 48 h, values are per cent of control
# [9] = Growth inhibition of human OVCAR8 cells at 10 uM after 48 hrs by sulforhodamine B assay; details: OVCAR-8, 48 h, values are per cent of control
# [10] = test system: MDA-MB-231; assay: Growth inhibition of human MDA-MB-231 cells at 10 uM after 48 hrs by sulforhodamine B assay; details: MDA-MB-231, 48 h, values are per cent of control
# [11] = test system: SK-MEL-28; assay: Growth inhibition of human SK-MEL-28 cells at 10 uM after 48 hrs by sulforhodamine B assay; details: SK-MEL-28, 48 h, values are per cent of control
# [12] = test system: M14; assay: Growth inhibition of human M14 cells at 10 uM after 48 hrs by sulforhodamine B assay; details: M14, 48 h, values are per cent of control
# [13] = Growth inhibition of human Hs 578T cells at 10 uM after 48 hrs by sulforhodamine B assay; details: values are per cent of control
# [14] = Growth inhibition of human LOXIMVI cells at 10 uM after 48 hrs by sulforhodamine B assay; details: LOX IMVI, values are per cent of control
# [15] = Growth inhibition of human RXF393 cells at 10 uM after 48 hrs by sulforhodamine B assay; details: RXF 393, 48 h, values are per cent of control
# [16] = test system: ACHN; assay: Growth inhibition of human ACHN cells at 10 uM after 48 hrs by sulforhodamine B assay; details: values are per cent of control
# [17] = Growth inhibition of human UO31 cells at 10 uM after 48 hrs by sulforhodamine B assay; details: UO-31, 48 h, values are per cent of control
# [18] = Growth inhibition of human SF268 cells at 10 uM after 48 hrs by sulforhodamine B assay; details: SF-268, 48 h, values are per cent of control
# [19] = Growth inhibition of human Caki1 cells at 10 uM after 48 hrs by sulforhodamine B assay; details: CAKI-1, 48 h, values are per cent of control
# [20] = test system: K562; assay: Growth inhibition of human K562 cells at 10 uM after 48 hrs by sulforhodamine B assay; details: K562, 48 h, values are per cent of control
# [21] = test system: T47D; assay: Growth inhibition of human T47D cells at 10 uM after 48 hrs by sulforhodamine B assay; details: values are per cent of control
# [22] = test system: A498; assay: Growth inhibition of human A498 cells at 10 uM after 48 hrs by sulforhodamine B assay; details: A498, 48 h, values are per cent of control
# [23] = test system: NCI-H322M; assay: Growth inhibition of human NCI-H322M cells at 10 uM after 48 hrs by sulforhodamine B assay; details: values are per cent of control
# [24] = Growth inhibition of human HCT116 cells at 10 uM after 48 hrs by sulforhodamine B assay; details: HCT-116, 48 h, values are per cent of control
# [25] = Growth inhibition of human HCC2998 cells at 10 uM after 48 hrs by sulforhodamine B assay; details: HCC 2998, 48 h, values are per cent of control
# [26] = Growth inhibition of human DU145 cells at 10 uM after 48 hrs by sulforhodamine B assay; details: DU-145, 48 h, values are per cent of control
# [27] = test system: NCI-H522; assay: Growth inhibition of human NCI-H522 cells at 10 uM after 48 hrs by sulforhodamine B assay; details: NCI-H522, 48 h, values are per cent of control
# [28] = Growth inhibition of human NCI-ADR-RES cells at 10 uM after 48 hrs by sulforhodamine B assay; details: values are per cent of control
# [29] = Growth inhibition of human IGROV1 cells at 10 uM after 48 hrs by sulforhodamine B assay; details: IGROV-1, 48 h, values are per cent of control
# [30] = test system: HT-29; assay: Growth inhibition of human HT-29 cells at 10 uM after 48 hrs by sulforhodamine B assay; details: HT-29, 48 h, values are per cent of control
# [31] = test system: SK-MEL-2; assay: Growth inhibition of human SK-MEL-2 cells at 10 uM after 48 hrs by sulforhodamine B assay; details: SK-MEL-2, 48 h, values are per cent of control
# [32] = Growth inhibition of human TK10 cells at 10 uM after 48 hrs by sulforhodamine B assay; details: TK-10, 48 h, values are per cent of control
# [33] = test system: SK-MEL-5; assay: Growth inhibition of human SK-MEL-5 cells at 10 uM after 48 hrs by sulforhodamine B assay; details: SK-MEL-5, 48 h, values are per cent of control
# [34] = Growth inhibition of human SNB75 cells at 10 uM after 48 hrs by sulforhodamine B assay; details: SNB-75, 48 h, values are per cent of control
# [35] = test system: A549; assay: Growth inhibition of human A549/ATCC cells at 10 uM after 48 hrs by sulforhodamine B assay; details: A549, 48 h, values are per cent of control
# [36] = Growth inhibition of human SF539 cells at 10 uM after 48 hrs by sulforhodamine B assay; details: SF-539, 48 h, values are per cent of control
# [37] = Growth inhibition of human COLO205 cells at 10 uM after 48 hrs by sulforhodamine B assay; details: COLO 205, 48 h, values are per cent of control
# [38] = test system: NCI-H460; assay: Growth inhibition of human NCI-H460 cells at 10 uM after 48 hrs by sulforhodamine B assay; details: NCI-H460, 48 h, values are per cent of control
# [39] = Growth inhibition of human OVCAR5 cells at 10 uM after 48 hrs by sulforhodamine B assay; details: OVCAR-5, 48 h, values are per cent of control
# [40] = Growth inhibition of human HCT15 cells at 10 uM after 48 hrs by sulforhodamine B assay; details: HCT-15, 48 h, values are per cent of control
compound,measurement,setting,value
COc1cc(/C=C(\C#N)c2ccc3c(c2)OCO3)cc(OC)c1OC,"growth, % of control at 10 µM",[1],87.6%
same,"growth, % of control at 10 µM",[2],95.4%
same,"growth, % of control at 10 µM",[3],89.2%
same,"growth, % of control at 10 µM",[4],94.5%
same,"growth, % of control at 10 µM",[5],98.9%
same,"growth, % of control at 10 µM",[6],103%
same,"growth, % of control at 10 µM",[7],96.5%
same,"growth, % of control at 10 µM",[8],96.1%
same,"growth, % of control at 10 µM",[9],96.3%
same,"growth, % of control at 10 µM",[10],88.2%
same,"growth, % of control at 10 µM",[11],97.6%
same,"growth, % of control at 10 µM",[12],95%
same,"growth, % of control at 10 µM",[13],100%
same,"growth, % of control at 10 µM",[14],109%
same,"growth, % of control at 10 µM",[15],100%
same,"growth, % of control at 10 µM",[16],96%
same,"growth, % of control at 10 µM",[17],67.1%
same,"growth, % of control at 10 µM",[18],94.4%
same,"growth, % of control at 10 µM",[19],86.6%
same,"growth, % of control at 10 µM",[20],80.4%
same,"growth, % of control at 10 µM",[21],70.7%
same,"growth, % of control at 10 µM",[22],81.8%
same,"growth, % of control at 10 µM",[23],104%
same,"growth, % of control at 10 µM",[24],99.4%
same,"growth, % of control at 10 µM",[25],91.3%
same,"growth, % of control at 10 µM",[26],107%
same,"growth, % of control at 10 µM",[27],85.8%
same,"growth, % of control at 10 µM",[28],93.9%
same,"growth, % of control at 10 µM",[29],95.3%
same,"growth, % of control at 10 µM",[30],88.8%
same,"growth, % of control at 10 µM",[31],90.2%
same,"growth, % of control at 10 µM",[32],98.1%
same,"growth, % of control at 10 µM",[33],92.2%
same,"growth, % of control at 10 µM",[34],114%
same,"growth, % of control at 10 µM",[35],93.6%
same,"growth, % of control at 10 µM",[36],92.4%
same,"growth, % of control at 10 µM",[37],104%
same,"growth, % of control at 10 µM",[38],107%
same,"growth, % of control at 10 µM",[39],99.7%
same,"growth, % of control at 10 µM",[40],85.7%
COc1ccc(/C(C#N)=C/c2ccc3c(c2)OCCO3)cc1,"growth, % of control at 10 µM",[1],53.7%
same,"growth, % of control at 10 µM",[2],72.1%
same,"growth, % of control at 10 µM",[3],94.6%
same,"growth, % of control at 10 µM",[4],78.3%
same,"growth, % of control at 10 µM",[5],28.8%
same,"growth, % of control at 10 µM",[6],81%
same,"growth, % of control at 10 µM",[7],80.2%
same,"growth, % of control at 10 µM",[8],66.7%
same,"growth, % of control at 10 µM",[9],77.1%
same,"growth, % of control at 10 µM",[10],68.4%
same,"growth, % of control at 10 µM",[11],75.3%
same,"growth, % of control at 10 µM",[12],38.5%
same,"growth, % of control at 10 µM",[13],79.6%
same,"growth, % of control at 10 µM",[14],56.7%
same,"growth, % of control at 10 µM",[15],77.3%
same,"growth, % of control at 10 µM",[16],87.7%
same,"growth, % of control at 10 µM",[17],73.2%
same,"growth, % of control at 10 µM",[18],71.9%
same,"growth, % of control at 10 µM",[19],64.2%
same,"growth, % of control at 10 µM",[20],18.7%
same,"growth, % of control at 10 µM",[21],40.4%
same,"growth, % of control at 10 µM",[22],70.9%
same,"growth, % of control at 10 µM",[23],77.5%
same,"growth, % of control at 10 µM",[24],38.8%
same,"growth, % of control at 10 µM",[25],55.7%
same,"growth, % of control at 10 µM",[26],84.7%
same,"growth, % of control at 10 µM",[27],39.3%
same,"growth, % of control at 10 µM",[28],34.4%
same,"growth, % of control at 10 µM",[29],71.3%
same,"growth, % of control at 10 µM",[30],21.8%
same,"growth, % of control at 10 µM",[31],36%
same,"growth, % of control at 10 µM",[32],65.2%
same,"growth, % of control at 10 µM",[33],45%
same,"growth, % of control at 10 µM",[34],61.1%
same,"growth, % of control at 10 µM",[35],41.5%
same,"growth, % of control at 10 µM",[36],63.7%
same,"growth, % of control at 10 µM",[37],50.5%
same,"growth, % of control at 10 µM",[38],33.4%
same,"growth, % of control at 10 µM",[39],88%
same,"growth, % of control at 10 µM",[40],43.4%
